Patent US10160753B2, “Indazole compounds as IRAK4 inhibitors” (Aurigene Discovery Technologies Limited, priority 2014, dated 2018)
Where a name gives a salt, the structure may show the parent alone.

target: T1, recombinant IRAK-4 kinase (Homo sapiens, UniProt Q9NWZ3); experiment: IRAK-4 Biochemical Assay (TR-FRET); conditions: 30 min pre-incubation, 100 nM Biotin Histone H3, 20 μM ATP, read-out: IC50 values for IRAK4 activity
T1 construct: purchased Millipore, USA
T1 sequence (Q9NWZ3 1-460): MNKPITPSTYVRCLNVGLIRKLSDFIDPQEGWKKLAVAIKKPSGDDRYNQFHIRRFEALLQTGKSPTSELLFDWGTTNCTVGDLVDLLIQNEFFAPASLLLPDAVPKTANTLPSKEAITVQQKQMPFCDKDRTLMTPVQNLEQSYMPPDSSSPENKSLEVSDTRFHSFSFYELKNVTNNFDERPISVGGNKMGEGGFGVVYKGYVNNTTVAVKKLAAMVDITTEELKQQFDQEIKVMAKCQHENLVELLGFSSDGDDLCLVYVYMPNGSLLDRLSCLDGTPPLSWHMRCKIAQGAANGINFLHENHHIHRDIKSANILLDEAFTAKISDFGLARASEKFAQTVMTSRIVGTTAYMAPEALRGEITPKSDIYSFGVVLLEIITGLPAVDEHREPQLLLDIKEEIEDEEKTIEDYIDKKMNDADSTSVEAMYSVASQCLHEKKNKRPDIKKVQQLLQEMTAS
Procedure: Compounds were tested for their potential to inhibit IRAK-4 enzyme in a TR-FRET assay using recombinant IRAK-4 kinase from Millipore, USA. The assay buffer was 50 mM Tris-HCl pH 7.5, 20 mM MgCl2, 1 mM EGTA, 2 mM DTT, 3 mM MnCl2 and 0.01% Tween 20.5 ng of IRAK-4 kinase was used for the assay. After pre-incubation of enzyme with test compound for 30 minutes at room temperature, a substrate mixture containing 100 nM Biotin Histone H3 (Millipore, USA) and 20 μM ATP (Sigma, USA) was added and the reaction was incubated for 30 min. Post incubation, the reaction was stopped by the addition of stop mix containing 40 mM EDTA, 1 nM of Europium-Anti-Phospho-Histone H3 (Ser10) antibody (Perkin Elmer, USA) and 20 nM SureLight Allophycocyanin-Streptavidin (Perkin Elmer, USA). The fluorescence emission at 615 nm and 665 nm were measured at an excitation of 340 nm and the percent inhibition was estimated from the ratio of the fluorescence intensities [(F665/F615)×10000]. The compounds were initially screened at 1 μM and 10 μM concentrations and potent compounds (>50% inhibition at 1 μM) were taken for dose response studies. The IC50 values were estimated by fitting the dose-response data to sigmoidal dose response (variable slope), curve fitting program using Graphpad Prism software Version 6.01.

IC50, < 50 nM:
Cc1cc(-c2nc(C(=O)Nc3cc4cn(C)nc4cc3N3CCC3)co2)ccn1 [Example 60, N-(6-(azetidin-1-yl)-2-methyl-2H-indazol-5-yl)-2-(2-methylpyridin-4-yl)oxazole-4-carboxamide]
Cc1cc(-c2nc(C(=O)Nc3cc4cn(C)nc4cc3N3CC(O)C3)co2)ccn1 [Example 61, N-(6-(3-hydroxyazetidin-1-yl)-2-methyl-2H-indazol-5-yl)-2-(2-methylpyridin-4-yl)oxazole-4-carboxamide]
Cc1cc(-c2nc(C(=O)Nc3cc4cnn(C)c4cc3N3CCCC3)co2)ccn1 [Example 62, N-(1-methyl-6-(pyrrolidin-1-yl)-1H-indazol-5-yl)-2-(2-methylpyridin-4-yl)oxazole-4-carboxamide]
Cc1cc(-c2nc(C(=O)Nc3cc4cn(C)nc4cc3N3CCCC3)co2)ccn1 [Example 63, N-(2-methyl-6-(pyrrolidin-1-yl)-2H-indazol-5-yl)-2-(2-methylpyridin-4-yl)oxazole-4-carboxamide]
Cc1cc(-c2nc(C(=O)Nc3cc4cn(C)nc4cc3N3CC[C@H](O)C3)co2)ccn1 [Example 64, (S)—N-(6-(3-hydroxypyrrolidin-1-yl)-2-methyl-2H-indazol-5-yl)-2-(2-methylpyridin-4-yl)oxazole-4-carboxamide]
Cc1cc(-c2nc(C(=O)Nc3cc4cn(C)nc4cc3N3CC[C@@H](O)C3)co2)ccn1 [Example 65, (R)—N-(6-(3-hydroxypyrrolidin-1-yl)-2-methyl-2H-indazol-5-yl)-2-(2-methylpyridin-4-yl)oxazole-4-carboxamide]
Cc1cc(-c2ccc(C(=O)Nc3cc4cn(C)nc4cc3N3CCCCC3)o2)ccn1 [Example 66, N-(2-methyl-6-(piperidin-1-yl)-2H-indazol-5-yl)-5-(2-methylpyridin-4-yl)furan-2-carboxamide]
Cc1cc(-c2ccc(C(=O)Nc3cc4cn(C)nc4cc3N3CCC(O)CC3)o2)ccn1 [Example 67, N-(6-(4-hydroxypiperidin-1-yl)-2-methyl-2H-indazol-5-yl)-5-(2-methylpyridin-4-yl)furan-2-carboxamide]
Cc1cc(-c2nc(C(=O)Nc3cc4cn(C)nc4cc3N3CCCC(O)C3)co2)ccn1 (centres unmarked) [Example 68, N-(6-(3-hydroxypiperidin-1-yl)-2-methyl-2H-indazol-5-yl)-2-(2-methylpyridin-4-yl)oxazole-4-carboxamide]
Cc1cc(-c2ccc(C(=O)Nc3cc4cn(C)nc4cc3N3CCC[C@@H](O)C3)o2)ccn1 [Example 69, (R)—N-(6-(3-hydroxypiperidin-1-yl)-2-methyl-2H-indazol-5-yl)-5-(2-methylpyridin-4-yl)furan-2-carboxamide]
Cc1cc(-c2ccc(C(=O)Nc3cc4cn(C)nc4cc3N3CCCC(O)C3)o2)ccn1 (centres unmarked) [Example 70, N-(6-(3-hydroxypiperidin-1-yl)-2-methyl-2H-indazol-5-yl)-5-(2-methylpyridin-4-yl)furan-2-carboxamide]
Cc1cc(-c2nc(C(=O)Nc3cc4cn(C)nc4cc3N3CCCCCC3)co2)ccn1 [Example 71, N-(6-(azepan-1-yl)-2-methyl-2H-indazol-5-yl)-2-(2-methylpyridin-4-yl)oxazole-4-carboxamide]
Cc1cc(-c2nc(C(=O)Nc3cc4cnn(C)c4cc3N3CCCCCC3)co2)ccn1 [Example 72, N-(6-(azepan-1-yl)-1-methyl-1H-indazol-5-yl)-2-(2-methylpyridin-4-yl)oxazole-4-carboxamide]
Cc1cc(-c2nc(C(=O)Nc3cc4c(C)n(C)nc4cc3N3CCCCC3)co2)ccn1 [Example 73, N-(2,3-dimethyl-6-(piperidin-1-yl)-2H-indazol-5-yl)-2-(2-methylpyridin-4-yl)oxazole-4-carboxamide]
Cc1cc(-c2nc(C(=O)Nc3cc4c(C)nn(C)c4cc3N3CCCCC3)co2)ccn1 [Example 74, N-(1,3-dimethyl-6-(piperidin-1-yl)-1H-indazol-5-yl)-2-(2-methylpyridin-4-yl)oxazole-4-carboxamide]
COCCn1ncc2cc(NC(=O)c3coc(-c4ccnc(C)c4)n3)c(N3CCC(O)CC3)cc21 [Example 75, N-(6-(4-hydroxypiperidin-1-yl)-1-(2-methoxyethyl)-1H-indazol-5-yl)-2-(2-methylpyridin-4-yl)oxazole-4-carboxamide]
COCCn1cc2cc(NC(=O)c3coc(-c4ccnc(C)c4)n3)c(N3CCC(O)CC3)cc2n1 [Example 76, N-(6-(4-hydroxypiperidin-1-yl)-2-(2-methoxyethyl)-2H-indazol-5-yl)-2-(2-methylpyridin-4-yl)oxazole-4-carboxamide]
Cc1cc(-c2nc(C(=O)Nc3cc4cnn(C)c4cc3N3CCC(O)CC3)co2)ccn1 [Example 77, N-(6-(4-hydroxypiperidin-1-yl)-1-methyl-1H-indazol-5-yl)-2-(2-methylpyridin-4-yl)oxazole-4-carboxamide]
Cc1cc(-c2nc(C(=O)Nc3cc4cnn(C)c4cc3N3CCC(F)CC3)co2)ccn1 [Example 78, N-(6-(4-fluoropiperidin-1-yl)-1-methyl-1H-indazol-5-yl)-2-(2-methylpyridin-4-yl)oxazole-4-carboxamide]
Cc1cc(-c2nc(C(=O)Nc3cc4cn(C)nc4cc3N3CCCC(F)C3)co2)ccn1 (centres unmarked) [Example 79, N-(6-(3-fluoropiperidin-1-yl)-2-methyl-2H-indazol-5-yl)-2-(2-methylpyridin-4-yl)oxazole-4-carboxamide]
Cc1cc(-c2nc(C(=O)Nc3cc4cn(C)nc4cc3N3CCC(CO)CC3)co2)ccn1 [Example 80, N-(6-(4-(hydroxymethyl)piperidin-1-yl)-2-methyl-2H-indazol-5-yl)-2-(2-methylpyridin-4-yl)oxazole-4-carboxamide]
Cc1cc(-c2nc(C(=O)Nc3cc4c(C)nn(C)c4cc3N3CCC(O)CC3)co2)ccn1 [Example 81, N-(6-(4-hydroxypiperidin-1-yl)-1,3-dimethyl-1H-indazol-5-yl)-2-(2-methylpyridin-4-yl)oxazole-4-carboxamide]
Cc1cc(-c2nc(C(=O)Nc3cc4cn(C)nc4cc3N3CCCC(CO)C3)co2)ccn1 (centres unmarked) [Example 82, N-(6-(3-(hydroxymethyl)piperidin-1-yl)-2-methyl-2H-indazol-5-yl)-2-(2-methylpyridin-4-yl)oxazole-4-carboxamide]
Cc1cc(-c2nc(C(=O)Nc3cc4c(C)n(C)nc4cc3N3CCC(O)CC3)co2)ccn1 [Example 83, N-(6-(4-hydroxypiperidin-1-yl)-2,3-dimethyl-2H-indazol-5-yl)-2-(2-methylpyridin-4-yl)oxazole-4-carboxamide]
CC(=O)Nc1cc(-c2nc(C(=O)Nc3cc4cn(C)nc4cc3N3CCCCC3)co2)ccn1 [Example 84, 2-(2-acetamidopyridin-4-yl)-N-(2-methyl-6-(piperidin-1-yl)-2H-indazol-5-yl)oxazole-4-carboxamide]
CC(=O)Nc1cc(-c2nc(C(=O)Nc3cc4cn(C)nc4cc3N3CCCC(F)C3)co2)ccn1 (centres unmarked) [Example 85, 2-(2-acetamidopyridin-4-yl)-N-(6-(3-fluoropiperidin-1-yl)-2-methyl-2H-indazol-5-yl)oxazole-4-carboxamide]
Cn1cc2cc(NC(=O)c3coc(-c4ccnc(N)c4)n3)c(N3CCCCC3)cc2n1 [Example 86, 2-(2-aminopyridin-4-yl)-N-(2-methyl-6-(piperidin-1-yl)-2H-indazol-5-yl)oxazole-4-carboxamide hydrochloride]
Cc1cc(-c2nc(C(=O)Nc3cc4c(C)nn(C)c4cc3N3CCC(F)CC3)co2)ccn1 [Example 87, N-(6-(4-fluoropiperidin-1-yl)-1,3-dimethyl-1H-indazol-5-yl)-2-(2-methylpyridin-4-yl)oxazole-4-carboxamide]
Cc1cc(-c2nc(C(=O)Nc3cc4cn(C)nc4cc3N[C@H]3CC[C@H](O)CC3)co2)ccn1 [Example 88, N-(6-(((1R,4R)-4-hydroxycyclohexyl)amino)-2-methyl-2H-indazol-5-yl)-2-(2-methylpyridin-4-yl)oxazole-4-carboxamide]
